Data on eight molecules can be found in ChEMBL document CHEMBL1201862, “PubChem BioAssay data set” (2004).

Common to all, as to assay: DTP human tumour cell line panel, 48 h
Test [1] deals with A549.
For test [2], the system named is RXF 393.
In test [3] the test system is BT-549.
In test [4] the test system is IGROV-1.
Test [5] relates to NCI-H460.
Test [6] has as its system EKVX.
Test [7] relates to A498.
Test [8] has as its system SK-MEL-28.
Test [9] relates to SK-MEL-2.
Test [10] deals with MCF7.
Test [11] deals with OVCAR-5.
Test [12] relates to OVCAR-4.
Test [13] relates to RPMI-8226.
Test [14] has as its system OVCAR-3.
In test [15] the test system is KM12.
Test [16] relates to SK-OV-3.
Test [17] concerns M14.
In test [18] the test system is MDA-MB-231.
Test [19] has as its system NCI/ADR-RES.
Test [20] relates to HL-60.

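Five concentrations, 48 hours, 96-well plates. GI50 marks 50% less growth.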 The source made the active and inactive calls. Cut-off read from the data, not from the text of the source: active = GI50 up to about 1.1 µM and inactive = higher.

What is called GI50 is the concentration at which growth is held to half of that of the control. As to `C[C@@H]1OC(=O)/C(=C\N(C)C)[C@H]2CC(=O)N(CCc3cn(S(=O)(=O)C(F)(F)F)c4ccccc34)C[C@H]12`, the GI50 in test [1], in test [2], in test [3], in [4], in [5] and in [6] was > 100 µM (inactive) each time. The GI50 in test [7], in test [8], in [9], in [10], in test [11] and in [12] was > 100 µM (inactive) each time. The GI50 in test [13], in [14], in test [15], in test [16], in test [17] and in test [18] was > 100 µM (inactive) throughout. The GI50 in test [19] is > 100 µM (inactive).

In the case of `Cc1cc(S(=O)(=O)Nc2nnc3ccccn23)c(S)cc1Cl`, the GI50 is 37.2 µM (inactive) in test [1]; > 100 µM (inactive) in test [3]; > 100 µM (inactive) in test [4]; 40.1 µM (inactive) in [5]; > 100 µM (inactive) in [6]; 25 µM (inactive) in test [7]. The GI50 was > 100 µM (inactive) in test [8]; 79.4 µM (inactive) in test [9]; > 100 µM (inactive) in [10]; > 100 µM (inactive) in test [11]; > 100 µM (inactive) in test [12]; > 100 µM (inactive) in test [20]. Further, the GI50 in test [13] was > 100 µM (inactive); in test [14] it was > 100 µM (inactive); in [15], 38.1 µM (inactive); in [17], > 100 µM (inactive); in [18] it was > 100 µM (inactive); in test [19] it was > 100 µM (inactive).

On to `O=C1N/C(=N/N=C\c2ccccc2)N/C1=C/c1ccc(Cl)cc1`, for which the GI50 in test [1] was 25.6 µM (inactive); in test [2], 21.2 µM (inactive); in test [3], 16.5 µM (inactive); in [4] it was 14.6 µM (inactive); in test [5] it was 18.4 µM (inactive); in [6], 19.4 µM (inactive). Besides, the GI50 in test [8] was 39 µM (inactive); in [9] it was 26.5 µM (inactive); in test [10], 24.7 µM (inactive); in [11], 26.4 µM (inactive); in test [12], 12.8 µM (inactive); in test [13] it was 20 µM (inactive). Besides, the GI50 is 17.4 µM (inactive) in test [14]; 27.1 µM (inactive) in test [15]; 20.7 µM (inactive) in [16]; 37.4 µM (inactive) in [17]; 29.3 µM (inactive) in test [18]; 23.2 µM (inactive) in [19].

Take `Cc1ccc(OCC2OC(n3cnc4nc(N)nc(Cl)c43)CC2Oc2ccc(C)cc2)cc1` (stereo not given): the GI50 is 21.3 µM (inactive) in [1]; 22.5 µM (inactive) in [3]; 18.5 µM (inactive) in [4]; 21.4 µM (inactive) in test [5]; 24.5 µM (inactive) in [6]; 28.2 µM (inactive) in test [7]. In addition, the GI50 was 36 µM (inactive) in [8]; 17.7 µM (inactive) in test [9]; 15.1 µM (inactive) in [10]; 18.3 µM (inactive) in test [11]; 23.2 µM (inactive) in test [12]; 7.98 µM (inactive) in [13]. Further, the GI50 in [14] is 18.6 µM (inactive); in [15] it was 21 µM (inactive); in test [16], 33.9 µM (inactive); in test [17], 15.8 µM (inactive); in test [18], 34.6 µM (inactive); in test [19] it was 15.9 µM (inactive).

As to `C=C1CC[C@H]2C(=O)OC(c3ccoc3)C[C@]2(C)C/C=C\C=C/1C(=O)OC` (stereo not given in full), the GI50 in [1], in test [2], in [3], in [4], in [5] and in test [6] was > 25 µM (inactive) in each case. Also, the GI50 in test [7], in test [8], in test [9], in [10], in test [11] and in test [12] was > 25 µM (inactive) in each case. In addition, the GI50 in test [14] is 13.9 µM (inactive); in test [15] it was > 25 µM (inactive); in [16], > 25 µM (inactive); in test [17] it was > 25 µM (inactive); in test [18], > 25 µM (inactive); in test [19] it was 13.2 µM (inactive).

As for `CCOC(=O)c1nc2cc(C(F)(F)F)ccc2nc1Oc1ccc(OC)cc1`, the GI50 is > 100 µM (inactive) in [1]; 50.9 µM (inactive) in [2]; > 100 µM (inactive) in test [3]; > 100 µM (inactive) in test [4]; 70.8 µM (inactive) in test [5]; > 100 µM (inactive) in [6]. For the same molecule, the GI50 in [8], in [9], in test [10], in test [11], in test [12] and in [20] was > 100 µM (inactive) each time. Moreover, the GI50 in [13] was 45.4 µM (inactive); in test [14], > 100 µM (inactive); in test [15], > 100 µM (inactive); in [17], > 100 µM (inactive); in test [18], > 100 µM (inactive); in test [19], > 100 µM (inactive).

Consider `COc1ccc2c(c1)c1c(C)c3cnccc3c(C)c1n2CCCN`, for which the GI50 in [1] is 0.296 µM (active); in [2], 0.05 µM (active); in test [3] it was 1.29 µM (inactive); in test [4], 0.313 µM (active); in test [5] it was 0.065 µM (active); in [6], 0.307 µM (active). Also, the GI50 in [7] was 0.451 µM (active); in test [8] it was 0.458 µM (active); in test [9], 0.401 µM (active); in test [10], 0.251 µM (active); in test [11], 0.431 µM (active); in [12], 0.0541 µM (active). Further, the concentration for 50% growth inhibition (GI50) in [14] was 0.453 µM (active); in [16], 0.415 µM (active); in test [17] it was 0.145 µM (active); in [18] it was 0.145 µM (active); in test [19], 0.273 µM (active).

With `COc1cc(C2SCC(=O)N2c2cc(Cl)c(Cl)cc2Cl)cc(OC)c1OC` (stereo not given), the GI50 in [1] was 38.5 µM (inactive); in test [3], 25.4 µM (inactive); in test [4] it was 62.4 µM (inactive); in test [5], 36.3 µM (inactive); in test [6], 37.3 µM (inactive); in test [7], 63 µM (inactive). Further, the GI50 is 84.5 µM (inactive) in [8]; 63 µM (inactive) in test [9]; 37.7 µM (inactive) in [10]; > 100 µM (inactive) in [11]; 38.6 µM (inactive) in test [12]; 28.2 µM (inactive) in test [20]. Besides, the GI50 in test [13] is 32.4 µM (inactive); in [14] it was 22.2 µM (inactive); in [15], 31.3 µM (inactive); in [16], 40.7 µM (inactive); in test [17], 54.2 µM (inactive); in [18] it was > 100 µM (inactive). In [19], the GI50 was 34.4 µM (inactive).
